From article PMC10693084, “Novel 8-Methoxycoumarin-3-Carboxamides with potent anticancer activity against liver cancer via targeting caspase-3/7 and β-tubulin polymerization” (BMC Chemistry, 2023)

Legend:
HepG2 cells [1] = experiment: Cell cycle analysis by flow cytometry (PI); format: cell-based, human; conditions: HepG2, 0.9 µM (IC50), 24 h
Protocol: Next, our investigations focused on evaluating the effects of compound 5 on the cell cycle of HepG2 cells utilizing flow cytometric analysis. The cells were treated with compound 5 at a concentration corresponding to the IC50 value and the cell cycle distribution was then analyzed, and the results were compared with untreated control cells. […] Conversely, there was a notable increase in the cellular population at the G2/M and pre-G1 phases. […] These findings indicate that compound 5 induces a notable arrest in cell growth during the […] phase. The flow cytometric analysis of HepG2 cells treated with compound 5 provided valuable insights into its effects on the cell cycle distribution. […] The G0/G1 phase is the resting phase, where cells prepare for DNA replication and cell division, while the S phase is where DNA replication occurs. […] This is a critical control point where the cell ensures that DNA replication is complete and free from errors before entering mitosis. […] The most remarkable finding was the dramatic rise in the pre-G1 population upon treatment with compound 5. The pre-G1 phase is associated with cells undergoing apoptosis, which is a programmed cell death process. […] This implies that the treatment with compound 5 leads to the activation of apoptotic pathways, causing the cells to undergo DNA fragmentation and degradation, ultimately leading to cell death. […] G2/M arrest prevents cells from progressing through the cell cycle, while apoptosis eliminates the damaged or aberrant cells. These combined effects may contribute to the compound's potent anti-cancer activity against HepG2 cells.
The quantification of DNA content in the cell cycle analysis was performed using a FACS Calibur flow cytometer at a wavelength of 488 nm, following the guidelines provided by the manufacturer. […] Following the completion of the treatment, the cells underwent two rounds of washing and were subsequently resuspended in phosphate-buffered saline (PBS). Following the washing step, a volume of 0.7 ml of absolute ethanol was subsequently introduced, and the mixture was incubated at a temperature of -20 °C for a duration of 20 min. Following the washing step, a volume of 500 μl of RNase was introduced, and subsequently, the mixture was incubated for a duration of 30 min. Next, the addition of PI was carried out, followed by a 30-min incubation period, during which exposure to light was carefully avoided.

[2] = tested on: human liver carcinoma HepG2 cells; experiment: MTT cytotoxicity assay against HepG2 cells; format: cell-based; conditions: HepG2 cells
Protocol: To assess the antitumor properties of these compounds, we utilized the 3-(4,5-dimethylthiazol-2-yl)-2,5-diphenyl tetrazolium bromide (MTT) colorimetric assay, a widely used method to evaluate cell viability and cytotoxicity.
Following the incubation period, the cells were subjected to various concentrations of the prepared molecules and subsequently incubated for a duration of 24 h. […] Subsequently, a volume of 100 μL of dimethyl sulfoxide (DMSO) was introduced into each well in order to facilitate the dissolution of the purple formazan that had been generated. The quantification of the color intensity of the formazan product, which serves as an indicator of the cellular growth condition, is performed by employing an ELISA plate reader set at a wavelength of 570 nm. The experimental conditions were implemented with a minimum of three replicates, and the experiments were conducted on at least three separate occasions.

HepG2 cells [3] = experiment: Annexin V-FITC/PI apoptosis screening; format: cell-based, human; conditions: HepG2, IC50 concentration, 24 h
Excerpt: Next, we have conducted Annexin V-FITC/PI screening to further investigate the impact of compound 5 on the growth of HepG2 cells and comprehensively analyze programmed cell death. The Annexin V-FITC/PI assay is a widely used method to differentiate between apoptotic and necrotic cells based on their membrane integrity and phospholipid exposure. […] The results from the Annexin V-FITC/PI screening provide crucial insights into the mode of action of compound 5 in inducing cell death in HepG2 cells. Annexin V-FITC is a marker that binds specifically to phosphatidylserine (PS), a phospholipid that becomes externalized on the cell membrane during early apoptosis. Propidium iodide (PI) is a dye that can penetrate cells with compromised membranes, typically found in late-stage apoptosis or necrosis. […] This is important since apoptosis is a highly regulated process, and its induction is a favorable outcome for anti-cancer therapies, as opposed to necrosis, which is often associated with cell death caused by injury or external damage. Overall, these findings from the Annexin V-FITC/PI screening support the ability of compound 5 to induce apoptosis in HepG2 cells and its lack of significant induction of necrosis reinforce its potential as a promising candidate for anti-cancer therapy.
Apoptosis detection in HepG-2 cells was conducted utilizing the BioVision® annexin‐V‐FITC apoptosis detection kit in accordance with the instructions provided by the manufacturer. The quantification of apoptosis was performed using a FACS Calibur flow cytometer, with a wavelength of 488 nm. In a concise manner, a total of 1–5 × 10^5 cells were obtained through the process of centrifugation. The cells were subsequently exposed to compound 5 at concentrations corresponding to its IC50 value for a duration of 24 h. Following this treatment, the cells were resuspended in a binding buffer solution with a volume of 500 μl. The addition of Annexin-V-FITC and PI was performed. Subsequently, the specimens were subjected to incubation at ambient temperature for a duration of 5 min, while being shielded from light. The analysis of Annexin-V-FITC binding was conducted utilizing a dedicated signal detector.

Structure (SMILES): COc1ccc(Br)c2cc(C(N)=O)c(=O)oc12 [Compound 5, 5-Bromo-8-methoxycoumarin-3-carboxamide]
- percentage of cells in pre-G1 phase (HepG2 cells [1]; untreated 2.08%): 45.88%
- percentage of cells in G2/M phase (HepG2 cells [1]; untreated 15.38%): 31.51%
- percentage of cells in S phase (HepG2 cells [1]; untreated 34.91%): 27.4%
- percentage of cells in G0/G1 phase (HepG2 cells [1]; untreated 49.71%): 41.09%
- Structure–activity summary of cytotoxic activity (Fig. 4B) [2]: improved activity
- IC50 ([2]; Homo sapiens, HepG2, 24 h, MTT, 24 h treatment): 0.9 ± 0.05 µM
- fold increase of early apoptosis vs control (HepG2 cells [3]): 42 fold
- fold increase of late-stage apoptosis vs control (HepG2 cells [3]): 100 fold
- fold increase of necrosis vs untreated (HepG2 cells [3]): threefold
- fold increase of programmed cell death vs untreated (HepG2 cells [3]): 22 fold
- percentage of cells in late-stage apoptosis (HepG2 cells [3]; control 0.22%): 22.16%
- percentage of cells undergoing early apoptosis (HepG2 cells [3]; control 0.46%): 19.51%
- percentage of cells undergoing necrosis (HepG2 cells [3]; untreated 1.4%): 4.21%
- total percentage of programmed cell death (HepG2 cells [3]; untreated 2.08%): 45.88%
